Reference: patent US9012651B2, “TRPV3 modulators” (AbbVie Inc., priority 2011, dated 2015)

Tests used:
TRPV3 = TRPV3 activation; relatively weak and nonspecific across TRPs; cited from earlier work
human TRPV3 receptors = human TRPV3 receptors (Homo sapiens (Human), UniProt Q8NET8); test: Calcium flux assay (FLIPR TETRA), inhibition of the 2-APB response; type: cell-based; conditions: recombinant HEK293 cells stably expressing TRPV3, Calcium-4 dye, 2-APB at its EC80
Method in brief: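 HEK293 cells stably expressing human and mouse TRPV3, plated the day before and dye-loaded 90-120 min in the dark, read on FLIPR Tetra. Peak fluorescence increase over baseline was expressed as percent of the maximal 2-APB response without compound.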

[1] = tested on: mouse Chronic Constriction Injury Model of neuropathic pain; test: Chronic Constriction Injury (CCI) model of neuropathic pain, mechanical allodynia (von Frey); type: in vivo; conditions: CD1 mice; acute oral administration, 100 mg/kg oral dose; 1 hour pretreatment P.O.; von Frey monofilaments
Text: Chronic Constriction Injury (CCI) Model of Neuropathic Pain:
CD1 mice (Charles River) were used for these studies. Prior to testing (2-4 weeks) animals underwent a surgical procedure consisting of approximately 3 loose ligatures around the sciatic nerve. Briefly, following sterilization procedures, under isofluorane anesthetic, a 1.5 cm incision was made dorsal to the pelvis. The biceps femoris and gluteous superficialis (right side) were separated and the sciatic nerve exposed, isolated, and 2-4 loose ligatures (5-0 chromic gut) with <1 mm spacing were placed around it. Following hemostasis, the wound was sutured (layer of muscle closed with 5-0 nylon suture, and the wound closed with surgical staples) and coated with iodine. The mice were allowed to recover on a warming plate and are returned to their home cages (soft bedding) when able to walk on their own. Two to four weeks after the surgery, TRPV3 antagonsists were tested in these mice following P.O. (1 hour pretreatment) or I.P. (30 minutes pretreatment) dosing, and mechanical allodynia evaluated where the threshold to response was assessed using calibrated von Frey monofilaments. The von Frey monofilaments were applied to the hind paw at increasing forces until the animal responded by lifting its paw. […]

Chain of human TRPV3 receptors (Q8NET8 whole entry): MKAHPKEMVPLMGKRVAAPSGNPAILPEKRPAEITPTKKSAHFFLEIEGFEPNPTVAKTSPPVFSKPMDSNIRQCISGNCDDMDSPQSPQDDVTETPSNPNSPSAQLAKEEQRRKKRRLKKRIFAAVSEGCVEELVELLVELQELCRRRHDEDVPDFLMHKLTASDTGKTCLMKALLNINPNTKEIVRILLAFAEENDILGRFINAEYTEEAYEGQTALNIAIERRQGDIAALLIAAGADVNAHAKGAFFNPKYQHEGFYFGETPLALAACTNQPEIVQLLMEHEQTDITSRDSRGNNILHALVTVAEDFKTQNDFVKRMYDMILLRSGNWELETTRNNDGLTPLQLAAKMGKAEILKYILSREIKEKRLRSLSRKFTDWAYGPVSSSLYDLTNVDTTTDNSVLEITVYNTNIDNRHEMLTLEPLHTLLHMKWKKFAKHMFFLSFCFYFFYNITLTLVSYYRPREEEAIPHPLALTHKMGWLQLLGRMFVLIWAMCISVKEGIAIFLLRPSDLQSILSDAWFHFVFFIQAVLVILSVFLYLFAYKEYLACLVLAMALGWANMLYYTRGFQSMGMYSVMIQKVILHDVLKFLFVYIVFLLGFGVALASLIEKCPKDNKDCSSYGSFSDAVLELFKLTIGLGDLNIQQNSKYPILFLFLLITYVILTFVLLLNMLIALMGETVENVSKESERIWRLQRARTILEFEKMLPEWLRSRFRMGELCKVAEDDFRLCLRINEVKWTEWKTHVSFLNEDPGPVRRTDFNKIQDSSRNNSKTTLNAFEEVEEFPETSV

Row | Molecule | EC50 (TRPV3) [nM] | IC50 (human TRPV3 receptors) [nM] | effects vs. vehicle in the mouse Chronic Constriction Injury Model of neuropathic pain [1]
1 | c1ccc(B(OB(c2ccccc2)c2ccccc2)c2ccccc2)cc1 [DPBA, diphenylboronic anhydride] | ~40000 |  | 
2 | NCCOB(c1ccccc1)c1ccccc1 [Example 2-APB, 2-aminoethoxydiphenylborate] | ~40000 |  | 
3 | CC(C)[C@H](CO)NCc1nc(-c2ccc(C(F)(F)F)nc2)ccc1F [Example 28, (2R)-2-({[5-fluoro-6′-(trifluoromethyl)-2,3′-bipyridin-6-yl]methyl}amino)-3-methylbutan-1-ol] |  | 950 | statistically significant effects vs. vehicle
4 | CC(C)[C@H](CO)NCc1nc(C2CCCCC2)ccc1F [Example 129] |  | 360 | statistically significant effects vs. vehicle
5 | CC(C)[C@H](CO)NCc1nc(-c2cc(C(F)(F)F)nn2C)ccc1F [Example 291, (2R)-2-[({3-fluoro-6-[1-methyl-3-(trifluoromethyl)-1H-pyrazol-5-yl]pyridin-2-yl}methyl)amino]-3-methylbutan-1-ol] |  | 790 | 
6 | CC(C)[C@H](CO)NCc1nc(-c2cncc(C(F)(F)F)c2)ccc1F [Example 292, (2R)-2-({[5-fluoro-5′-(trifluoromethyl)-2,3′-bipyridin-6-yl]methyl}amino)-3-methylbutan-1-ol] |  | 280 | 
7 | CC(C)[C@H](CO)NCc1nc(-c2ccc(C(F)(F)F)cc2C(F)(F)F)ccc1F [Example 293, (2R)-2-[({6-[2,4-bis(trifluoromethyl)phenyl]-3-fluoropyridin-2-yl}methyl)amino]-3-methylbutan-1-ol] |  | 550 | 
8 | CC(C)[C@H](CO)NCc1nc(-c2ccc(F)c(Cl)c2)ccc1F [Example 294, (2R)-2-({[6-(3-chloro-4-fluorophenyl)-3-fluoropyridin-2-yl]methyl}amino)-3-methylbutan-1-ol] |  | 120 | 
9 | {1-[({2-[5-(trifluoromethyl)pyridin-2-yl]pyrimidin-4-yl}methyl)amino]cyclohexyl}methanol [Example 193] |  | > 20000 | 
